According to patent US9663478B2, “Benzotriazine oxides as drugs targeting Mycobacterium tuberculosis” (priority 2011, dated 2017):
Converted amounts (≈) assume the structure as drawn.

Tests used:
[1] = system: Salmonella typhimurium tester strain TA98; assay: Salmonella/microsome plate incorporation assay (Ames screen), TA98; format: cell-based; conditions: for Mean revertants per plate: Salmonella typhimurium
From the text: (§1) A liability in developing any bioreductively-activated antimicrobial drug is the potential for mutagenicity. Because the basis for activity of these compounds is the generation of intermediate radical species, undesirable mutagenicity poses a risk, as has been documented for many classes of bioreductive drugs, including the BTO tirapazamine (TPZ).^19,20 The most convenient methodology for assessing the potential to induce genetic damage is to use the plate incorporation method with Salmonella typhimurium strains TA98 and TA100, commonly known as the Ames assay. The Salmonella tester strains have mutations in the histidine operon, a mutation that leads to defective lipopolysaccharide (rfa), and a deletion that covers genes involved in the synthesis of biotin (bio) and in the repair of ultraviolet-induced DNA damage (uvrB).^21,22 These mutations make the strains more permeable to many molecules and increase their susceptibility to the mutagenic effects of these molecules. Given that the hypothesized mechanism of the BTO compounds is to selectively form cytotoxic radical species in bacteria over mammalian cells, a microbial mutagenicity assay is not ideal, but was used to benchmark their activities in this assay. […] Individual plate counts and their means and standard deviations, along with the condition of the background lawn, are presented in SI Table 2.
(§2) Experimental compounds were screened for microbial mutagenicity activity using the plate incorporation method with Salmonella typhimurium tester strains TA98 and TA100, in the presence and absence of an Aroclor 1254-induced rat-liver metabolic activation system containing 10% S9 (MA). The presence of the appropriate genetic characteristics was verified for the strains used in this study. Stock solutions were made by dissolving each test sample in dimethyl sulfoxide (DMSO) at 5 mg/ml. These initial stock concentrations were then serially diluted to achieve dose formulations of 100, 50, 10, 5, 1, 0.5, and 0.1 μg/plate (dosing volume 100 μl). Test plates were compared with the control plates for their revertant count and for the condition of the background bacterial lawn. A test article was considered a mutagen when the mean number of revertant colonies on the test plates exceeds the mean solvent control counts by at least a two-fold margin. Dose relatedness was also taken into account when evaluating a mutagenic response. Cytotoxicity was estimated by several parameters: a substantial decrease in the number of revertant colonies on the test plates, clearing or absence of the background bacterial lawn growth, formation of pinpoint nonrevertant colonies, or complete absence of bacterial growth.

[2] = system: Salmonella typhimurium tester strain TA100; assay: Salmonella/microsome plate incorporation assay (Ames screen), TA100; format: cell-based
From the text: as §1, §2

NRP Mtb H37Rv cells = assay: Low-oxygen recovery assay (LORA) MIC; format: cell-based, Mycobacterium tuberculosis; conditions: for LORA MIC: Tables P1, P2, non-replicating M. tuberculosis
Mtb H37Rv [3] = assay: TB MIC - ITR (UIC), Institute for Tuberculosis Research; format: cell-based, Mycobacterium tuberculosis; conditions: for TB MIC - UIC: Tables P1, P2
in vitro = conditions: African green monkey, VERO Tox (CC50)
Mtb H37Rv [4] = assay: TB MIC - SRI, resazurin-based microplate assay; format: cell-based, Mycobacterium tuberculosis; conditions: Mycobacterium tuberculosis, H37RV, Tables P1-P3; read-out: TB MIC - SRI
Vero cells = conditions: African green monkey, 72 h
[5] = TA100, with metabolic activation (10% S9), 2 μg per plate, positive control
[6] = TA100, with metabolic activation (10% S9), 0.1 μg per plate
[7] = TA100, with metabolic activation (10% S9), 0.5 μg per plate
[8] = TA100, with metabolic activation (10% S9), 1 μg per plate
[9] = TA100, with metabolic activation (10% S9), 5 μg per plate
[10] = TA100, with metabolic activation (10% S9), 10 μg per plate
[11] = TA100, with metabolic activation (10% S9), 50 μg per plate
[12] = TA100, with metabolic activation (10% S9), 100 μg per plate
[13] = TA100, without metabolic activation, 0.1 μg per plate
[14] = TA100, without metabolic activation, 0.5 μg per plate
[15] = TA100, without metabolic activation, 1 μg per plate
[16] = TA100, without metabolic activation, 5 μg per plate
[17] = TA100, without metabolic activation, 10 μg per plate
[18] = TA100, without metabolic activation, 50 μg per plate
[19] = TA100, without metabolic activation, 100 μg per plate

With `Nc1ccc2cc3ccccc3cc2c1` [Compound 2AN] the Ratio treated/solvent ([1]; TA98, with metabolic activation (10% S9), 2 μg per plate, positive control) was 15.3, the “Mean revertants per plate” value [2, 5] was 490.0 and the Ratio treated/solvent [2, 5] was 2.9.

With `CCNc1n[n+]([O-])c2cc3c(cc2[n+]1[O-])CCC3` [Compound 15fa, 3-(ethylamino)-7,8-dihydro-6H-indeno[5,6-e][1,2,4]triazine 1,4-dioxide] the “number of revertant colonies, TA98” value [1] was “dose-related increases in the number of revertant colonies”, the “Mean revertants per plate” value ([1]; 0.1 μg per plate) was 21.0 and the “Mean revertants per plate” value ([1]; 0.1 μg/plate) was 35.5. For the same molecule, the “Mean revertants per plate” value ([1]; 0.5 μg per plate) was 19.0, the “Mean revertants per plate” value ([1]; 0.5 μg/plate) was 36.0 and the “Mean revertants per plate” value ([1]; 1 μg per plate) was 26.0. The “Mean revertants per plate” value ([1]; 1 μg/plate) was 30.5, the “Mean revertants per plate” value ([1]; 5 μg per plate) was 47.0 and the “Mean revertants per plate” value ([1]; 5 μg/plate) was 37.0. The “Mean revertants per plate” value ([1]; 10 μg per plate) was 52.0, the “Mean revertants per plate” value ([1]; 10 μg/plate) was 45.0 and the “Mean revertants per plate” value ([1]; 50 μg per plate) was 142.5. For the same molecule, the “Mean revertants per plate” value ([1]; 50 μg/plate) was 141.0, the “Mean revertants per plate” value ([1]; 100 μg per plate) was 345.0 and the “Mean revertants per plate” value ([1]; 100 μg/plate) was 215.5. It also gave a Ratio treated/solvent ([1]; TA98, with metabolic activation (10% S9), 0.1 μg per plate) of 1.0, a Ratio treated/solvent ([1]; TA98, with metabolic activation (10% S9), 0.5 μg per plate) of 1.0 and a Ratio treated/solvent ([1]; TA98, with metabolic activation (10% S9), 1 μg per plate) of 0.9. For the same molecule, the Ratio treated/solvent ([1]; TA98, with metabolic activation (10% S9), 5 μg per plate) was 1.0, the Ratio treated/solvent ([1]; TA98, with metabolic activation (10% S9), 10 μg per plate) was 1.5 and the Ratio treated/solvent ([1]; TA98, with metabolic activation (10% S9), 50 μg per plate) was 4.0. It also gave a Ratio treated/solvent ([1]; TA98, with metabolic activation (10% S9), 100 μg per plate) of 9.7, a Ratio treated/solvent ([1]; TA98, without metabolic activation, 0.1 μg per plate) of 0.8 and a Ratio treated/solvent ([1]; TA98, without metabolic activation, 0.5 μg per plate) of 0.7. The Ratio treated/solvent ([1]; TA98, without metabolic activation, 1 μg per plate) was 1.0, the Ratio treated/solvent ([1]; TA98, without metabolic activation, 5 μg per plate) was 1.8 and the Ratio treated/solvent ([1]; TA98, without metabolic activation, 10 μg per plate) was 1.8. For the same molecule, the Ratio treated/solvent ([1]; TA98, without metabolic activation, 50 μg per plate) was 5.5, the Ratio treated/solvent ([1]; TA98, without metabolic activation, 100 μg per plate) was 8.5 and the “Mean revertants per plate” value [2, 6] was 145.5. The Ratio treated/solvent [2, 6] was 0.9, the “Mean revertants per plate” value [2, 7] was 148.5 and the Ratio treated/solvent [2, 7] was 0.9. For the same molecule, the “Mean revertants per plate” value [2, 8] was 185.0, the Ratio treated/solvent [2, 8] was 1.1 and the “Mean revertants per plate” value [2, 9] was 207.0. For the same molecule, the Ratio treated/solvent [2, 9] was 1.2, the “Mean revertants per plate” value [2, 10] was 298.5 and the Ratio treated/solvent [2, 10] was 1.8. The “Mean revertants per plate” value [2, 11] was 854.5, the Ratio treated/solvent [2, 11] was 5.1 and the “Mean revertants per plate” value [2, 12] was 1450.0. The Ratio treated/solvent [2, 12] was 8.6, the “Mean revertants per plate” value [2, 13] was 127.0 and the Ratio treated/solvent [2, 13] was 0.8. For the same molecule, the “Mean revertants per plate” value [2, 14] was 137.0, the Ratio treated/solvent [2, 14] was 0.8 and the “Mean revertants per plate” value [2, 15] was 150.5. The Ratio treated/solvent [2, 15] was 0.9, the “Mean revertants per plate” value [2, 16] was 259.0 and the Ratio treated/solvent [2, 16] was 1.6. The “Mean revertants per plate” value [2, 17] was 299.5, the Ratio treated/solvent [2, 17] was 1.8 and the “Mean revertants per plate” value [2, 18] was 913.5. The Ratio treated/solvent [2, 18] was 5.6, the “Mean revertants per plate” value [2, 19] was 1268.0 and the Ratio treated/solvent [2, 19] was 7.8. For the same molecule, the “number of revertant colonies, TA100” value ([2]; presence and absence of metabolic activation) was “dose-related increases in the number of revertant colonies”, the MIC (NRP Mtb H37Rv cells; Mycobacterium tuberculosis, H37RV, NRP Mtb, Tables 1-4 and text, read-out: LORA MIC - ITR) was 0.83 µg/mL (≈ 3.37 µM) and the MIC (Mtb H37Rv [3]; Mycobacterium tuberculosis, H37RV, Tables 1-4, read-out: TB MIC - ITR) was 0.95 µg/mL (≈ 3.86 µM).

With `[N-]=[N+]=[N-].[Na+]` [SA] the “Mean revertants per plate” value [2, 16] was 1620.0 and the Ratio treated/solvent [2, 16] was 10.0.

Work on `[O-][n+]1nc(NC2CC2)[n+]([O-])c2ccccc21` [SRI-012255] yielded an LORA MIC (NRP Mtb H37Rv cells) of 1.76 µg/mL, a CC50 at 72 h (in vitro) of 20.7 µg/mL (≈ 94.9 µM) and a TB MIC - UIC (Mtb H37Rv [3]) of 1.82 µg/mL.

`[O-][n+]1nc(NC2CCCCCC2)[n+]([O-])c2ccccc21` [SRI-012256] gave an LORA MIC (NRP Mtb H37Rv cells) of 0.5 µg/mL, a CC50 at 72 h (in vitro) of 7.9 µg/mL (≈ 28.8 µM) and a TB MIC - UIC (Mtb H37Rv [3]) of 1.64 µg/mL.

For `CCCC(C)Nc1n[n+]([O-])c2ccccc2[n+]1[O-]` (stereo not drawn) [SRI-012258], the LORA MIC (NRP Mtb H37Rv cells) was 0.99 µg/mL, the CC50 at 72 h (in vitro) was 26.3 µg/mL (≈ 106 µM) and the TB MIC - UIC (Mtb H37Rv [3]) was 1.95 µg/mL.

Molecule `[O-][n+]1nc(NC2CCCC2)[n+]([O-])c2ccccc21` [SRI-012265] has an LORA MIC (NRP Mtb H37Rv cells) of 0.68 µg/mL, a CC50 at 72 h (in vitro) of 10.4 µg/mL (≈ 42.2 µM) and a TB MIC - UIC (Mtb H37Rv [3]) of 3.58 µg/mL.

With `[O-][n+]1nc(NC2CC2)[n+]([O-])c2ccc(F)cc21` [SRI-012274] the MIC (Mtb H37Rv [4]) was 0.312 µg/mL (≈ 1.32 µM), the “VERO Tox-SRI” value (Vero cells) was 3.5 and the LORA MIC (NRP Mtb H37Rv cells) was 2.8 µg/mL. The TB MIC - UIC (Mtb H37Rv [3]) was 0.93 µg/mL.

For `[O-][n+]1nc(NC2CCCCC2)[n+]([O-])c2ccc(F)cc21` [SRI-012275], the MIC (Mtb H37Rv [4]) was 0.625 µg/mL (≈ 2.25 µM), the “VERO Tox-SRI” value (Vero cells) was under 2.5 and the LORA MIC (NRP Mtb H37Rv cells) was 0.47 µg/mL. For the same molecule, the TB MIC - UIC (Mtb H37Rv [3]) was 0.68 µg/mL.

With `[O-][n+]1nc(NC2CCC2)[n+]([O-])c2ccc(F)cc21` [SRI-012276] the MIC (Mtb H37Rv [4]) was 0.312 µg/mL (≈ 1.25 µM), the “VERO Tox-SRI” value (Vero cells) was 2.5 and the LORA MIC (NRP Mtb H37Rv cells) was 0.88 µg/mL. It also gave a TB MIC - UIC (Mtb H37Rv [3]) of 0.4 µg/mL.

In the case of `[O-][n+]1nc(NC2CCCC2)[n+]([O-])c2ccc(F)cc21` [SRI-012277], the MIC (Mtb H37Rv [4]) is reported as 0.312 µg/mL (≈ 1.18 µM), the “VERO Tox-SRI” value (Vero cells) is reported as 2.3 and the LORA MIC (NRP Mtb H37Rv cells) is reported as 0.34 µg/mL. It also gave a TB MIC - UIC (Mtb H37Rv [3]) of 0.33 µg/mL.
